Measurements published in patent publication US20220387405A1, “METHODS OF TREATMENT WITH N-((R)-1-(3-CHLOROPYRIDIN-2-YL)-2,2,2-TRIFLUOROETHYL)-2-((S)-2,6-DIOXOPIPERIDIN-3-YL)-1-OXOISOINDOLINE-5-CARBOXAMIDE” (CELGENE CORPORATION, priority 2021, published 2022).

Key:
CYP2C8 = molecular target: T1, CYP2C8 (Homo sapiens, UniProt P10632); assay: CYP inhibition in human liver microsomes, CYP2C8; format: in vitro ADME
T1 construct: In human liver microsomes; from tissue; host or cells: human liver microsomes

CYP3A4/5 = assay: CYP inhibition in human liver microsomes, CYP3A4/5; format: in vitro ADME
CYP2C9 = molecular target: T2, CYP2C9 (Homo sapiens, UniProt P11712); assay: CYP inhibition in human liver microsomes, CYP2C9; format: in vitro ADME
T2 construct: In human liver microsomes; from tissue; host or cells: human liver microsomes

[1] = test system: blasts in TP53 WT AML samples; assay: 5-day liquid culture of AML patient BM cells; format: cell-based, human
[2] = test system: Normal T lymphocytes in BM samples; assay: PharmaFlow test, normal T lymphocytes in AML patient BM samples; format: cell-based, human; conditions: BM samples of AML patients; for Compound 1 all but 1 patient
MV4-11 AML cell line = assay: Compound washout experiment in MV4-11 (CK1α, p53 and downstream events); format: cell-based; conditions: 0.3 μM for 12 hours followed by washout
[3] = test system: CD34+ cells from BM samples of TP53 WT AML donors; assay: Liquid culture of CD34+ cells from TP53 WT AML donors (FACS); format: cell-based, human
Procedure: (§1) CD34^+ cells isolated from BM samples of 3 TP53 WT AML donors and 3 healthy donors were treated with increasing concentrations of Compound 1 in liquid culture at times ranging from 4 hours to 5 days. […] Acute myeloid leukemia blasts sustained CK1α degradation up to 5 days in culture as assessed by fluorescence-activated cell sorting (FACS) analysis. Strikingly, p53 stabilization was sustained longer in leukemic cells (up to 48 hours) compared with normal BM cells (for 24 hours).

CYP2B6 = molecular target: T3, CYP2B6 (Homo sapiens, UniProt P20813); assay: CYP inhibition in human liver microsomes, CYP2B6; format: in vitro ADME
T3 construct: In human liver microsomes; from tissue; host or cells: human liver microsomes

CYP2D6 = molecular target: T4, CYP2D6 (Homo sapiens, UniProt P10635); assay: CYP inhibition in human liver microsomes, CYP2D6; format: in vitro ADME
T4 construct: In human liver microsomes; from tissue; host or cells: human liver microsomes

CYP1A2 = assay: CYP induction in human hepatocyte culture, CYP1A2 mRNA; format: in vitro ADME; conditions: up to 50 μM for three consecutive days
[4] = Nonclinical pharmacokinetics in rats; format: in vivo
Source text: (§2) The systemic clearance of Compound 1 was low and the volume of distribution was high in rats and monkeys. […] Notable sex differences in PK were not observed in either species. Compound 1 had good oral bioavailability (≥50%) in rats and monkeys.

CYP2E1 = molecular target: T5, CYP2E1 (Homo sapiens, UniProt P05181); assay: CYP inhibition in human liver microsomes, CYP2E1; format: in vitro ADME
T5 construct: In human liver microsomes; from tissue; host or cells: human liver microsomes

[5] = Nonclinical pharmacokinetics in monkeys; format: in vivo
Source text: as §2

CYP2A6 = molecular target: T6, CYP2A6 (Homo sapiens, UniProt P11509); assay: CYP inhibition in human liver microsomes, CYP2A6; format: in vitro ADME
T6 construct: In human liver microsomes; from tissue; host or cells: human liver microsomes

[6] = test system: Salmonella typhimurium strains (TA1535, TA1537, TA98, TA100); assay: Bacterial reverse mutation test, Salmonella typhimurium; format: cell-based
Procedure: (§3) Compound 1 was tested in Salmonella typhimurium strains (TA1535, TA1537, TA98, TA100) and Escherichia coli strain WP2 uvrA at a range of concentrations up to 5000 μg/plate (the standard limit concentration for this assay), in the presence and absence of a supplemented rat liver fraction (S9 mix), using the plate incorporation version of the bacterial reverse mutation test. Dimethyl sulfoxide (DMSO) was used as the solvent.
(§4) The mean revertant colony counts for the negative controls were within the laboratory historical control range. Bacteria were also incubated with standard positive controls, and the response of the various bacterial strains to these agents confirmed the sensitivity of the test system and the activity of the S9 mix. Therefore, the results from both the negative and positive controls confirmed the validity of the assay.
(§5) No substantial increases in revertant colony numbers were obtained with any of the tester strains, following exposure to Compound 1 at any concentration, in either the presence or absence of S9 mix. Therefore, Compound 1 was considered to be negative for the induction of mutagenicity in this in vitro assay.

[7] = test system: Escherichia coli strain WP2 uvrA; assay: Bacterial reverse mutation test, Escherichia coli; format: cell-based
Procedure: as §3, §4, §5

TP53 WT AML cell lines = assay: Cell autonomous activity against TP53 WT AML cell lines; format: cell-based
Source text: The remaining 5 cell lines were either medium-sensitive or completely resistant to Compound 1; the unresponsiveness to Compound 1 treatment was associated with inadequate accumulation of p53 protein and/or its transcriptional targets BAX and PUMA.

[8] = Partitioning into blood cells; format: in vitro ADME
Source text: There was no marked difference in free fraction among human, rat and monkey. Over the concentration ranges tested (25- to 50-fold range) in each species, there was <2-fold change in free fraction.

CYP3A4 = assay: CYP induction in human hepatocyte culture, CYP3A4 mRNA; format: in vitro ADME; conditions: up to 50 μM for three consecutive days
[9] = test system: CD34+ cells from BM samples of healthy donors; assay: Liquid culture of CD34+ cells from healthy donors (FACS); format: cell-based, human
Procedure: as §1

[10] = test system: leukemic cells from TP53 WT AML patients; assay: PharmaFlow test (Vivia), cytotoxic effect on leukemic cells in AML patient BM samples; format: cell-based, human
[11] = up to 5000 μg/plate, presence and absence of S9 mix

T2 sequence (P11712 whole entry): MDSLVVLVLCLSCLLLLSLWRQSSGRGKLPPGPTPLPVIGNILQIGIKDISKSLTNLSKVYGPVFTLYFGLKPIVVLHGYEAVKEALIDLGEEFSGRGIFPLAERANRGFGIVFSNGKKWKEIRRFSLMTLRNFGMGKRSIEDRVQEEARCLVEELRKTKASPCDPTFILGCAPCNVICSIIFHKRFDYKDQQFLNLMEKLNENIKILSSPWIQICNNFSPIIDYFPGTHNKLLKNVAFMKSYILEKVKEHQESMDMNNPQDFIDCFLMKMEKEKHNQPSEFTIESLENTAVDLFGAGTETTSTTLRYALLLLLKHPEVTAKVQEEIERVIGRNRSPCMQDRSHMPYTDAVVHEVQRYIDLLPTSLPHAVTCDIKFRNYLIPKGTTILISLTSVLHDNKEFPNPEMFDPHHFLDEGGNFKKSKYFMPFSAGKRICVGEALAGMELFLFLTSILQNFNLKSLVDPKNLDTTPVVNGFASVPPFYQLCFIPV
T3 sequence (P20813 whole entry): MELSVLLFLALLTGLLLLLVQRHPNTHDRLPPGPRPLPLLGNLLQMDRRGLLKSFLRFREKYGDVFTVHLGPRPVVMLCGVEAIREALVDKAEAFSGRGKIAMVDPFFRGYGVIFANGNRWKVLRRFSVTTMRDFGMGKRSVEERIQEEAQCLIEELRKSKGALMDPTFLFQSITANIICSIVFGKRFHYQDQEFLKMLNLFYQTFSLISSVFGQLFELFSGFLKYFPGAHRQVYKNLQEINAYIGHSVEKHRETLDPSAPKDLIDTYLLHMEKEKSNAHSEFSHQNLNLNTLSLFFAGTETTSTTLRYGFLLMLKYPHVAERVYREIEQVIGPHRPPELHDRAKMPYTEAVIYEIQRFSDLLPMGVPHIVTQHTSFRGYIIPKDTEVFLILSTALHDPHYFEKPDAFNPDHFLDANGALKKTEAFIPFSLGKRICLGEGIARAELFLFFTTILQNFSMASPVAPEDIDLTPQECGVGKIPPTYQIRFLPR
T4 sequence (P10635 whole entry): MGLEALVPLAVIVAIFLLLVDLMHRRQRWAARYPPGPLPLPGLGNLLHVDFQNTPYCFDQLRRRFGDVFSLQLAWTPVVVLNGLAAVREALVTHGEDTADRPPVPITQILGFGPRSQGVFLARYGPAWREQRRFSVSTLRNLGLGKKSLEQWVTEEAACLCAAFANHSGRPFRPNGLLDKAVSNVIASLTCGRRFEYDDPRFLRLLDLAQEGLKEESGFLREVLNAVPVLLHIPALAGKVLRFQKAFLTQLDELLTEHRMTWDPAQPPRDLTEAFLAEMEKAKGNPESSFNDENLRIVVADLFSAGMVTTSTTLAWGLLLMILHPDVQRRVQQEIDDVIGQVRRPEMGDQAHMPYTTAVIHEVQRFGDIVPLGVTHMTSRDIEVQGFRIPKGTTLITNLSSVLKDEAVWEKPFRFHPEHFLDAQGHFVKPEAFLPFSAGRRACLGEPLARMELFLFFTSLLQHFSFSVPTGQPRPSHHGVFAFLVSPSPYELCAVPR
T5 sequence (P05181 whole entry): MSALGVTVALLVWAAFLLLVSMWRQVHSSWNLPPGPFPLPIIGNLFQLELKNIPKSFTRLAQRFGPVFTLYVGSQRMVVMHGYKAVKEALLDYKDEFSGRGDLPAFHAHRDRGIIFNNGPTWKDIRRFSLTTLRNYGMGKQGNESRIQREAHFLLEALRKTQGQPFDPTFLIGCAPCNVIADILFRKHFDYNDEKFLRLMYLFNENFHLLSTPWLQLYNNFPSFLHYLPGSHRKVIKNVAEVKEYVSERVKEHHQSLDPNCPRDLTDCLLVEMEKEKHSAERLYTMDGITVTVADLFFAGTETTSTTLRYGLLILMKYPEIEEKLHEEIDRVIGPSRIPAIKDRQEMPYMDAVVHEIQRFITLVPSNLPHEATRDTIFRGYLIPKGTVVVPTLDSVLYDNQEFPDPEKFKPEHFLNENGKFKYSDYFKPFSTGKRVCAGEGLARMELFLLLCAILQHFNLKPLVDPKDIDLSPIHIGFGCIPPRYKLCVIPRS
T6 sequence (P11509 whole entry): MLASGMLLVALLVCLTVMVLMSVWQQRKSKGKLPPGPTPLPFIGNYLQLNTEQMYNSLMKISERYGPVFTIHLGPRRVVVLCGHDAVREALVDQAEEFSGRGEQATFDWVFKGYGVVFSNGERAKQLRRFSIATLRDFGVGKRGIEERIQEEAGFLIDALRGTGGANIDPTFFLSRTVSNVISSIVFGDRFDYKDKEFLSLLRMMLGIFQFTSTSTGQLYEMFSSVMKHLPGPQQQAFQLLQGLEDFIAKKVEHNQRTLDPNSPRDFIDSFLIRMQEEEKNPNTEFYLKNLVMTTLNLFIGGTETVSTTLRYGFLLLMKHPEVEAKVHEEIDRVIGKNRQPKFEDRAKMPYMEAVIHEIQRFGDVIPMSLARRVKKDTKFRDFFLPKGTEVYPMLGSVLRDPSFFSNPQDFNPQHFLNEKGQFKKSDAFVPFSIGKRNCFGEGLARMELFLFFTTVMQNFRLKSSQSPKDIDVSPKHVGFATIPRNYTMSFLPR
T1 sequence (P10632 whole entry): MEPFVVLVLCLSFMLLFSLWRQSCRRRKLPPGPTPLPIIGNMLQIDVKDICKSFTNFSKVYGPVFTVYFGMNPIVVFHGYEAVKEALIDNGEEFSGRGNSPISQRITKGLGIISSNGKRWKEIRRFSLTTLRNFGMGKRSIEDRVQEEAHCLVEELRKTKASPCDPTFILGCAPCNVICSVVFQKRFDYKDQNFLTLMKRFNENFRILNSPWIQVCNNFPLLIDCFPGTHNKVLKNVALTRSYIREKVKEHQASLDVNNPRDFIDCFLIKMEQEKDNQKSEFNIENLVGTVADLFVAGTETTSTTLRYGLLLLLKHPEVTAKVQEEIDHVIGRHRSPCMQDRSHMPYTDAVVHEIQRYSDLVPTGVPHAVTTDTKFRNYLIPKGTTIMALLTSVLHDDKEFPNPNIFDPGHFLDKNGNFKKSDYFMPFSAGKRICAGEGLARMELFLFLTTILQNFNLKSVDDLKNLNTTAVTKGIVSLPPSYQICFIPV

For `O=C1CC[C@H](N2Cc3cc(C(=O)N[C@H](c4ncccc4Cl)C(F)(F)F)ccc3C2=O)C(=O)N1` [Compound 1, N-((R)-1-(3-chloropyridin-2-yl)-2,2,2-trifluoroethyl)-2-((S)-2,6-dioxopiperidin-3-yl)-1-oxoisoindoline-5-carboxamide], the time-dependent inhibition (CYP2C8; CYP2C8, 30-minute preincubation with NADPH) was “not a time-dependent inhibition”, the IC50 (CYP2C8; human liver microsomes, CYP2C8) was greater than 30000 nM and the IC50 (CYP3A4/5; human liver microsomes, CYP3A4/5) was greater than 30000 nM. The inhibition at 30 min, 30 µM (CYP3A4/5; human, liver microsomes, CYP3A4/5, at 30 μM, 30-minute preincubation with NADPH, read-out: time-dependent inhibition) was less than 20%, the time-dependent inhibition (CYP2C9; CYP2C9, 30-minute preincubation with NADPH) was “not a time-dependent inhibition” and the IC50 (CYP2C9; human liver microsomes, CYP2C9) was greater than 30000 nM. The total blast numbers ([1]; 5 days in liquid culture, all TP53 WT AML samples tested, vs vehicle control) was “deeply decreased”, the IC50 ([1]; liquid culture, apoptosis and cell cycle arrest, all samples) was “nanomolar range” and the “cytotoxicity in T lymphocytes” value [2] was “noticeably more resistant”. The “persistence of p53 downstream events (p21, phosphor-Ser139-Histone H2A.X, caspase 3 cleavage) after washout” value (MV4-11 AML cell line) was “at least 10 hours”, the “duration of sustained CK1α degradation” value ([3]; AML blasts in culture, FACS) was “up to 5 days” and the cellular outcome ([3]; leukemic cells) was “apoptotic outcome”. For the same compound, the “duration of sustained p53 stabilization” value ([3]; leukemic cells) was “up to 48 hours”, the time-dependent inhibition (CYP2B6; CYP2B6, 30-minute preincubation with NADPH) was “not a time-dependent inhibition” and the inhibitory effect (CYP2B6; human liver microsomes, CYP2B6) was no more than 25%. For the same compound, the time-dependent inhibition (CYP2D6; CYP2D6, 30-minute preincubation with NADPH) was “not a time-dependent inhibition”, the inhibitory effect (CYP2D6; human liver microsomes, CYP2D6) was no more than 25% and the “mRNA expression of CYP1A2” value (CYP1A2) was “no dose-dependent increases”. The “accumulation following multiple doses” value [4] was “No accumulation”, the systemic clearance [4] was “low” and the volume of distribution [4] was “high”. The bioavailability ([4]; rat, in vivo, po) was no less than 50%, the half-life ([4]; rat, in vivo, read-out: terminal half-life) was 1.5 to 1.7 h and the time-dependent inhibition (CYP2E1; CYP2E1, 30-minute preincubation with NADPH) was “not a time-dependent inhibition”. For the same compound, the inhibitory effect (CYP2E1; human liver microsomes, CYP2E1) was no more than 25%, the “accumulation following multiple doses” value [5] was “No accumulation” and the systemic clearance [5] was “low”. For the same compound, the volume of distribution [5] was “high”, the bioavailability ([5]; monkey, in vivo, po) was no less than 50% and the half-life ([5]; monkey, in vivo, read-out: terminal half-life) was 2.3 to 4.4 h. The time-dependent inhibition (CYP2A6; CYP2A6, 30-minute preincubation with NADPH) was “not a time-dependent inhibition”, the inhibitory effect (CYP2A6; human liver microsomes, CYP2A6) was no more than 25% and the “toxicity to the bacteria” value ([6]; highest concentrations tested) was “non-toxic”. The “induction of mutagenicity (revertant colony numbers)” value [6, 11] was “negative”, the “toxicity to the bacteria” value ([7]; highest concentrations tested) was “non-toxic” and the “induction of mutagenicity (revertant colony numbers)” value [7, 11] was “negative”. The “number of cell lines sensitive to Compound 1” value (TP53 WT AML cell lines; of the 13 TP53 WT AML cell lines tested) was 8, the IC50 (TP53 WT AML cell lines; the 8 sensitive of 13 TP53 WT AML cell lines tested) was 15 to 500 nM and the “partitioning into blood cells” value [8] was “no or limited partitioning”. For the same compound, the “mRNA expression of CYP3A4” value (CYP3A4) was “no dose-dependent increases”, the “duration of sustained p53 stabilization” value ([9]; normal BM cells) was 24 h and the cellular outcome ([9]; normal cells) was “Cycle arrest”. For the same compound, the IC50 ([10]; Homo sapiens) was 22 to 412 nM and the “number of BM samples with sensitive leukemic cells” value ([10]; out of 9 AML patient BM samples) was 5.
